Read-outs that look alike come from different tables or passages of the source.
Experiments:
[1] = Biodistribution in PC-3 tumor-bearing NSG mice (Example 2); assay type: in vivo; details: male, NSG (NOD.Cg-Prkdc^scid Il2rg^tm1Wjl/SzJ), mouse, iv, total radioactivity; for tissue uptake at 2 h / tissue to tissue ratio at 2 h: 120 MIN p.i.
Method: (§1) […]. The mice were sacrificed by CO2 inhalation at 1 h, and 2 h p.i. Blood was collected by cardiac puncture. Organs/tissues were harvested, rinsed with PBS, blotted dry, and weighed. The activity in tissues was assayed by gamma counter and expressed as the percentage injected dose per gram of tissue (% ID/g).

[2] = test system: PC-3 xenograft bearing mice; assay: as above; assay type: in vivo
Method: as §1

[3] = test system: PC-3 xenograft bearing mice; details: PET/CT, PC-3 tumor-bearing mice
Method: Animal experiments were approved by the Animal Ethics Committee of the University of British Columbia.
Mice were sedated and scanned (Siemens Inveon microPET/CT) with body temperature maintained by heating pad. […] PET data were acquired in list mode, reconstructed using 3-dimensional ordered-subsets expectation maximization (2 iterations) followed by a fast maximum a priori algorithm (18 iterations) with CT-based attenuation correction. Images were analyzed using the Inveon Research Workplace software (Siemens Healthineers).

[4] = measured at 5 min and 15 min p.i., mice, radio-HPLC
Source text: ^68Ga-ProBOMB2 (5.9±0.3 MBq) was intravenously injected into four male NSG mice. After a 5-min and 15-min uptake period, two mice were sedated/euthanized at each timepoint, and blood was collected. The plasma was extracted from whole blood with acetonitrile, vortexed, and the supernatant separated.

## CC(C)C[C@@H](CN1CCC[C@H]1C(N)=O)NC(=O)[C@H](Cc1c[nH]cn1)NC(=O)CNC(=O)[C@@H](NC(=O)[C@H](C)NC(=O)[C@H](Cc1c[nH]c2ccccc12)NC(=O)[C@H](CCC(N)=O)NC(=O)[C@@H](Cc1ccccc1)NC(=O)CN1CCC(NC(=O)CN2CCN(CC(=O)O)CCN(CC(=O)O)CCN(CC(=O)O)CC2)CC1)C(C)C [^68Ga-ProBOMB2, metal not drawn]
[1]; PC-3 tumor, 60 MIN BLOCKED, co-injection of 100 μg of [D-Phe^6,Leu-NHEt^13,des-Met^14]Bombesin(6-14), read-out: Biodistribution PC3 TUMOR, Mean
  tissue uptake at 1 h: 3.77 %ID/g
[1]; PC-3 tumor, 60 MIN p.i., read-out: Biodistribution PC3 TUMOR, Mean
  tissue uptake at 1 h: 10.8 %ID/g
[1]; PC-3 tumor, read-out: Biodistribution PC3 TUMOR, Mean
  tissue uptake at 2 h: 8.79 %ID/g
[1]; adrenal glands, 60 MIN BLOCKED, co-injection of 100 μg of [D-Phe^6,Leu-NHEt^13,des-Met^14]Bombesin(6-14), read-out: Biodistribution ADRENAL GLANDS, Mean
  tissue uptake at 1 h: 0.32 %ID/g
[1]; adrenal glands, 60 MIN p.i., read-out: Biodistribution ADRENAL GLANDS, Mean
  tissue uptake at 1 h: 0.76 %ID/g
[1]; adrenal glands, read-out: Biodistribution ADRENAL GLANDS, Mean
  tissue uptake at 2 h: 0.47 %ID/g
[1]; bone, 60 MIN BLOCKED, co-injection of 100 μg of [D-Phe^6,Leu-NHEt^13,des-Met^14]Bombesin(6-14), read-out: Biodistribution BONE, Mean
  tissue uptake at 1 h: 0.13 %ID/g
[1]; bone, 60 MIN p.i., read-out: Biodistribution BONE, Mean
  tissue uptake at 1 h: 0.15 %ID/g
[1]; bone, read-out: Biodistribution BONE, Mean
  tissue uptake at 2 h: 0.06 %ID/g
[1]; brain, 60 MIN BLOCKED, co-injection of 100 μg of [D-Phe^6,Leu-NHEt^13,des-Met^14]Bombesin(6-14), read-out: Biodistribution BRAIN, Mean
  tissue uptake at 1 h: 0.02 %ID/g
[1]; brain, 60 MIN p.i., read-out: Biodistribution BRAIN, Mean
  tissue uptake at 1 h: 0.02 %ID/g
[1]; brain, read-out: Biodistribution BRAIN, Mean
  tissue uptake at 2 h: 0.01 %ID/g
[1]; fat, 60 MIN BLOCKED, co-injection of 100 μg of [D-Phe^6,Leu-NHEt^13,des-Met^14]Bombesin(6-14), read-out: Biodistribution FAT, Mean
  tissue uptake at 1 h: 0.08 %ID/g
[1]; fat, 60 MIN p.i., read-out: Biodistribution FAT, Mean
  tissue uptake at 1 h: 0.06 %ID/g
[1]; fat, read-out: Biodistribution FAT, Mean
  tissue uptake at 2 h: 0.02 %ID/g
[1]; heart, 60 MIN BLOCKED, co-injection of 100 μg of [D-Phe^6,Leu-NHEt^13,des-Met^14]Bombesin(6-14), read-out: Biodistribution HEART, Mean
  tissue uptake at 1 h: 0.16 %ID/g
[1]; heart, 60 MIN p.i., read-out: Biodistribution HEART, Mean
  tissue uptake at 1 h: 0.18 %ID/g
[1]; heart, read-out: Biodistribution HEART, Mean
  tissue uptake at 2 h: 0.05 %ID/g
[1]; intestine, 60 MIN BLOCKED, co-injection of 100 μg of [D-Phe^6,Leu-NHEt^13,des-Met^14]Bombesin(6-14), read-out: Biodistribution INTESTINE, Mean
  tissue uptake at 1 h: 0.34 %ID/g
[1]; intestine, 60 MIN p.i., read-out: Biodistribution INTESTINE, Mean
  tissue uptake at 1 h: 0.46 %ID/g
[1]; intestine, read-out: Biodistribution INTESTINE, Mean
  tissue uptake at 2 h: 0.19 %ID/g
[1]; kidney, 60 MIN BLOCKED, co-injection of 100 μg of [D-Phe^6,Leu-NHEt^13,des-Met^14]Bombesin(6-14), read-out: Biodistribution KIDNEY, Mean
  tissue uptake at 1 h: 2.22 %ID/g
[1]; kidney, 60 MIN p.i., read-out: Biodistribution KIDNEY, Mean
  tissue uptake at 1 h: 1.81 %ID/g
[1]; kidney, read-out: Biodistribution KIDNEY, Mean
  tissue uptake at 2 h: 1.27 %ID/g
[1]; liver, 60 MIN BLOCKED, co-injection of 100 μg of [D-Phe^6,Leu-NHEt^13,des-Met^14]Bombesin(6-14), read-out: Biodistribution LIVER, Mean
  tissue uptake at 1 h: 0.57 %ID/g
[1]; liver, 60 MIN p.i., read-out: Biodistribution LIVER, Mean
  tissue uptake at 1 h: 0.43 %ID/g
[1]; liver, read-out: Biodistribution LIVER, Mean
  tissue uptake at 2 h: 0.29 %ID/g
[1]; lungs, 60 MIN BLOCKED, co-injection of 100 μg of [D-Phe^6,Leu-NHEt^13,des-Met^14]Bombesin(6-14), read-out: Biodistribution LUNGS, Mean
  tissue uptake at 1 h: 0.41 %ID/g
[1]; lungs, 60 MIN p.i., read-out: Biodistribution LUNGS, Mean
  tissue uptake at 1 h: 0.39 %ID/g
[1]; lungs, read-out: Biodistribution LUNGS, Mean
  tissue uptake at 2 h: 0.13 %ID/g
[1]; muscle, 60 MIN BLOCKED, co-injection of 100 μg of [D-Phe^6,Leu-NHEt^13,des-Met^14]Bombesin(6-14), read-out: Biodistribution MUSCLE, Mean
  tissue uptake at 1 h: 0.09 %ID/g
[1]; muscle, 60 MIN p.i., read-out: Biodistribution MUSCLE, Mean
  tissue uptake at 1 h: 0.15 %ID/g
[1]; muscle, read-out: Biodistribution MUSCLE, Mean
  tissue uptake at 2 h: 0.03 %ID/g
[1]; pancreas, Biodistribution PANCREAS, Mean, 60 MIN BLOCKED, co-injection of 100 μg of [D-Phe^6,Leu-NHEt^13,des-Met^14]Bombesin(6-14), read-out: Biodistribution […], Mean
  tissue uptake at 1 h: 0.62 %ID/g
[1]; pancreas, Biodistribution PANCREAS, Mean, 60 MIN p.i., read-out: Biodistribution […], Mean
  tissue uptake at 1 h: 1.2 %ID/g
[1]; pancreas, Biodistribution PANCREAS, Mean, read-out: Biodistribution […], Mean
  tissue uptake at 2 h: 0.3 %ID/g
[1]; seminal, 60 MIN BLOCKED, co-injection of 100 μg of [D-Phe^6,Leu-NHEt^13,des-Met^14]Bombesin(6-14), read-out: Biodistribution SEMINAL, Mean
  tissue uptake at 1 h: 1.95 %ID/g
[1]; seminal, 60 MIN p.i., read-out: Biodistribution SEMINAL, Mean
  tissue uptake at 1 h: 2.44 %ID/g
[1]; seminal, read-out: Biodistribution SEMINAL, Mean
  tissue uptake at 2 h: 1.63 %ID/g
[1]; spleen, 60 MIN BLOCKED, co-injection of 100 μg of [D-Phe^6,Leu-NHEt^13,des-Met^14]Bombesin(6-14), read-out: Biodistribution SPLEEN, Mean
  tissue uptake at 1 h: 0.33 %ID/g
[1]; spleen, 60 MIN p.i., read-out: Biodistribution SPLEEN, Mean
  tissue uptake at 1 h: 0.27 %ID/g
[1]; spleen, read-out: Biodistribution SPLEEN, Mean
  tissue uptake at 2 h: 0.11 %ID/g
[1]; stomach, 60 MIN BLOCKED, co-injection of 100 μg of [D-Phe^6,Leu-NHEt^13,des-Met^14]Bombesin(6-14), read-out: Biodistribution STOMACH, Mean
  tissue uptake at 1 h: 0.07 %ID/g
[1]; stomach, 60 MIN p.i., read-out: Biodistribution STOMACH, Mean
  tissue uptake at 1 h: 0.19 %ID/g
[1]; stomach, read-out: Biodistribution STOMACH, Mean
  tissue uptake at 2 h: 0.06 %ID/g
[1]; testes, 60 MIN BLOCKED, co-injection of 100 μg of [D-Phe^6,Leu-NHEt^13,des-Met^14]Bombesin(6-14), read-out: Biodistribution TESTES, Mean
  tissue uptake at 1 h: 0.21 %ID/g
[1]; testes, 60 MIN p.i., read-out: Biodistribution TESTES, Mean
  tissue uptake at 1 h: 0.16 %ID/g
[1]; testes, read-out: Biodistribution TESTES, Mean
  tissue uptake at 2 h: 0.07 %ID/g
[1]; tumor/blood, 60 MIN p.i., read-out: TUMOR-TO-BLOOD ratio, Mean
  tissue to tissue ratio at 1 h: 22.2
[1]; tumor/blood, read-out: TUMOR-TO-BLOOD ratio, Mean
  tissue to tissue ratio at 2 h: 75.3
[1]; tumor/bone, 60 MIN BLOCKED, co-injection of 100 μg of [D-Phe^6,Leu-NHEt^13,des-Met^14]Bombesin(6-14), read-out: TUMOR-TO-BONE ratio, Mean
  tissue to tissue ratio at 1 h: 39.8
[1]; tumor/bone, 60 MIN p.i., read-out: TUMOR-TO-BONE ratio, Mean
  tissue to tissue ratio at 1 h: 89.9
[1]; tumor/bone, read-out: TUMOR-TO-BONE ratio, Mean
  tissue to tissue ratio at 2 h: 173
[1]; tumor/kidney, 60 MIN BLOCKED, co-injection of 100 μg of [D-Phe^6,Leu-NHEt^13,des-Met^14]Bombesin(6-14), read-out: TUMOR-TO-KIDNEY ratio, Mean
  tissue to tissue ratio at 1 h: 1.77
[1]; tumor/kidney, 60 MIN p.i., read-out: TUMOR-TO-KIDNEY ratio, Mean
  tissue to tissue ratio at 1 h: 6.03
[1]; tumor/kidney, read-out: TUMOR-TO-KIDNEY ratio, Mean
  tissue to tissue ratio at 2 h: 6.96
[1]; tumor/liver, 60 MIN BLOCKED, co-injection of 100 μg of [D-Phe^6,Leu-NHEt^13,des-Met^14]Bombesin(6-14), read-out: TUMOR-TO-LIVER ratio, Mean
  tissue to tissue ratio at 1 h: 7.33
[1]; tumor/liver, 60 MIN p.i., read-out: TUMOR-TO-LIVER ratio, Mean
  tissue to tissue ratio at 1 h: 26.2
[1]; tumor/liver, read-out: TUMOR-TO-LIVER ratio, Mean
  tissue to tissue ratio at 2 h: 35
[1]; tumor/muscle, 60 MIN BLOCKED, co-injection of 100 μg of [D-Phe^6,Leu-NHEt^13,des-Met^14]Bombesin(6-14), read-out: TUMOR-TO-MUSCLE ratio, Mean
  tissue to tissue ratio at 1 h: 44
[1]; tumor/muscle, 60 MIN p.i., read-out: TUMOR-TO-MUSCLE ratio, Mean
  tissue to tissue ratio at 1 h: 102
[1]; tumor/muscle, read-out: TUMOR-TO-MUSCLE ratio, Mean
  tissue to tissue ratio at 2 h: 411
[1]; tumor/pancreas, TUMOR-TO-PANCREAS ratio, Mean, 60 MIN BLOCKED, co-injection of 100 μg of [D-Phe^6,Leu-NHEt^13,des-Met^14]Bombesin(6-14), read-out: TUMOR-TO-[…] ratio, Mean
  tissue to tissue ratio at 1 h: 6.17
[1]; tumor/pancreas, TUMOR-TO-PANCREAS ratio, Mean, 60 MIN p.i., read-out: TUMOR-TO-[…] ratio, Mean
  tissue to tissue ratio at 1 h: 9.32
[1]; tumor/pancreas, TUMOR-TO-PANCREAS ratio, Mean, read-out: TUMOR-TO-[…] ratio, Mean
  tissue to tissue ratio at 2 h: 31.1
[1]; whole blood, 60 MIN BLOCKED, co-injection of 100 μg of [D-Phe^6,Leu-NHEt^13,des-Met^14]Bombesin(6-14), read-out: Biodistribution BLOOD, Mean
  tissue uptake at 1 h: 0.53 %ID/g
[1]; whole blood, 60 MIN p.i., read-out: Biodistribution BLOOD, Mean
  tissue uptake at 1 h: 0.49 %ID/g
[1]; whole blood, read-out: Biodistribution BLOOD, Mean
  tissue uptake at 2 h: 0.13 %ID/g
[2]; 60 MIN BLOCKED, co-injection of 100 μg of [D-Phe^6,Leu-NHEt^13,des-Met^14]Bombesin(6-14)
  TUMOR-TO-BLOOD ratio, Mean: 7.23
[2]; PC-3 tumors, 60 min p.i., 100 μg blocker
  Decrease of average uptake in tumors by co-injection of [D-Phe^6, Leu-NHEt^13, des-Met^14]Bombesin(6-14): 65%
[3]
  Clearance pathway: primarily cleared through the renal pathway
[4]
  Intact in plasma: 89%
